Several values for one entry are separate records, joined by “and”; a condition that tells them apart may be missing. Equal entries are not always repeated. Toxic doses and inconclusive results are not listed. The calls were made as follows: active = survival T/C of 150% or more; inactive = T/C below 125% in these data.
System: P388 leukemia ip, CD2F1 mice, survival T/C
Assay: NCI In Vivo Anticancer Drug Screen. Data for tumor model P388 Leukemia (intraperitoneal) in CD2F1 (CDF1) mice
Conditions: endpoint: median survival time, higher = longer survival
Summary of the method: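 Mice carrying the transplanted tumor received test compound or vehicle. Survival was recorded in each group, and the value is the treated-group measurement divided by that of the vehicle-treated control group.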

[1] = dose: 60.0 mg/kg/injection, schedule: Q01DX005 (ip), vehicle: saline with Tween-80
[2] = dose: 120.0 mg/kg/injection, schedule: Q01DX005 (ip), vehicle: saline with Tween-80
[3] = dose: 50.0 mg/kg/injection, schedule: Q04DX002 (ip), vehicle: saline with Tween-80
[4] = dose: 100.0 mg/kg/injection, schedule: Q04DX002 (ip), vehicle: saline with Tween-80
[5] = dose: 240.0 mg/kg/injection, schedule: Q01DX005 (ip), vehicle: saline with Tween-80
[6] = dose: 50.0 mg/kg/injection, schedule: Q01DX005 (ip), vehicle: saline with Tween-80
[7] = dose: 100.0 mg/kg/injection, schedule: Q01DX005 (ip), vehicle: saline with Tween-80
[8] = dose: 200.0 mg/kg/injection, schedule: Q01DX005 (ip), vehicle: saline with Tween-80
[9] = dose: 50.0 mg/kg/injection, schedule: Q01DX009 (ip), vehicle: Klucel (hydroxypropylcellulose) (HPC)
[10] = dose: 100.0 mg/kg/injection, schedule: Q01DX009 (ip), vehicle: Klucel (hydroxypropylcellulose) (HPC)
[11] = dose: 200.0 mg/kg/injection, schedule: Q01DX009 (ip), vehicle: Klucel (hydroxypropylcellulose) (HPC)
[12] = dose: 25.0 mg/kg/injection, schedule: Q01DX009 (ip), vehicle: saline
[13] = dose: 50.0 mg/kg/injection, schedule: Q01DX009 (ip), vehicle: saline
[14] = dose: 50.0 mg/kg/injection, schedule: Q01DX005 (ip), vehicle: Klucel (hydroxypropylcellulose) (HPC)
[15] = dose: 100.0 mg/kg/injection, schedule: Q01DX005 (ip), vehicle: Klucel (hydroxypropylcellulose) (HPC)
[16] = dose: 200.0 mg/kg/injection, schedule: Q01DX005 (ip), vehicle: Klucel (hydroxypropylcellulose) (HPC)
[17] = dose: 100.0 mg/kg/injection, schedule: Q01DX001 (ip), vehicle: saline with Tween-80
[18] = dose: 200.0 mg/kg/injection, schedule: Q01DX001 (ip), vehicle: saline with Tween-80
[19] = dose: 200.0 mg/kg/injection, schedule: Q04DX002 (ip), vehicle: saline with Tween-80
[20] = dose: 50.0 mg/kg/injection, schedule: Q01DX001 (ip), vehicle: saline with Tween-80

Measured: T/C

OCC(CCc1c[nH]c2ccccc12)c1c[nH]c2ccccc12 (configuration not stated)
inactive: dose: 60.0 mg/kg/injection, schedule: Q01DX005 (ip), vehicle: Klucel (hydroxypropylcellulose) (HPC) 90 % of control | dose: 120.0 mg/kg/injection, schedule: Q01DX005 (ip), vehicle: Klucel (hydroxypropylcellulose) (HPC) 90 % of control | dose: 240.0 mg/kg/injection, schedule: Q01DX005 (ip), vehicle: Klucel (hydroxypropylcellulose) (HPC) 93 % of control

CN(C)CCOc1cccc2c1CCC2
inactive: [1] 107 % of control | [2] 87 % of control

CN=C(N)N/N=C(\c1ccc(F)cc1)c1ccccc1Cl
inactive: dose: 25.0 mg/kg/injection, schedule: Q04DX002 (ip), vehicle: saline with Tween-80 101 % of control | [3] 100 % of control | [4] 98 % of control

COC(=O)c1c(-c2ccc(OC)cc2)c(-c2ccc(OC)cc2)[nH]c(=O)c1C#N
inactive: [1] 100 % of control | [2] 100 % of control | [5] 99 % of control

CCOC(=O)c1cc(-c2ccccc2)c(OC)c(=O)nc1-c1ccccc1
inactive: dose: 25.0 mg/kg/injection, schedule: Q01DX005 (ip), vehicle: saline with Tween-80 100 % of control | [6] 100 % of control | [7] 100 % of control | [8] 112 % of control

O=[N+]([O-])c1ccc(-c2csc(-c3ccc(Br)cc3)n2)cc1
inactive: [9] 87 % of control | [10] 95 % of control | [11] 92 % of control

CCOC(=O)c1conc1C
inactive: dose: 12.5 mg/kg/injection, schedule: Q01DX009 (ip), vehicle: saline 112 % of control | [12] 106 % of control | [13] 101 % of control and 103 % of control

COc1ccc2[nH]c(=O)c(COC(C)=O)c(COC(C)=O)c2c1
inactive: [14] 87 % of control | [15] 87 % of control | [16] 97 % of control

O=P(c1ccccc1)(c1ccccc1)c1ccccc1OCc1cccc(COc2ccccc2P(=O)(c2ccccc2)c2ccccc2)n1
inactive: [14] 99 % of control | [15] 91 % of control | [16] 97 % of control

O=C(O)c1cc(=O)cc(-c2ccccc2)o1
inactive: [14] 98 % of control | [15] 97 % of control | [16] 101 % of control

O=c1c2cncnc2sc2nccn12
inactive: [1] 99 % of control | [2] 98 % of control | [5] 95 % of control

Cc1ccc(C(=O)/C(=C/c2ccccn2)N=[N+]=[N-])cc1
inactive: [17] 110 % of control | [18] 104 % of control | dose: 400.0 mg/kg/injection, schedule: Q01DX001 (ip), vehicle: saline with Tween-80 99 % of control

Cc1ccc2[nH]c(=O)oc(=O)c2c1
inactive: [12] 105 % of control | [13] 107 % of control | dose: 50.0 mg/kg/injection, schedule: Q04DX003 (ip), vehicle: saline with Tween-80 100 % of control | dose: 100.0 mg/kg/injection, schedule: Q01DX009 (ip), vehicle: saline 96 % of control | dose: 100.0 mg/kg/injection, schedule: Q04DX003 (ip), vehicle: saline with Tween-80 108 % of control | dose: 200.0 mg/kg/injection, schedule: Q01DX009 (ip), vehicle: saline 110 % of control | dose: 200.0 mg/kg/injection, schedule: Q04DX003 (ip), vehicle: saline with Tween-80 108 % of control

Cc1cc2nc3ccccc3[nH]c2c2ccc(=O)cc12
inactive: [4] 99 % of control | [19] 98 % of control | dose: 400.0 mg/kg/injection, schedule: Q04DX002 (ip), vehicle: saline with Tween-80 94 % of control

O=C(Nc1ccc(Nc2ccncc2)cc1)c1ccc([N+](=O)[O-])cc1
inactive: [10] 90 % of control | [11] 100 % of control | dose: 400.0 mg/kg/injection, schedule: Q01DX009 (ip), vehicle: Klucel (hydroxypropylcellulose) (HPC) 90 % of control

CCC(C)C(NC(=O)C(F)(F)F)C(=O)O (configuration not stated)
inactive: dose: 50.0 mg/kg/injection, schedule: Q01DX009 (ip), vehicle: saline with Tween-80 98 % of control | dose: 100.0 mg/kg/injection, schedule: Q01DX009 (ip), vehicle: saline with Tween-80 98 % of control | dose: 200.0 mg/kg/injection, schedule: Q01DX009 (ip), vehicle: saline with Tween-80 103 % of control

CN(C)/N=C1\C(=O)Nc2c(Cl)cc(Cl)cc21
inactive: [9] 94 % of control | [10] 94 % of control | [11] 94 % of control

CCOC(=O)CCC1=C(C)c2cc3[nH]c(cc4[nH]c(cc5nc(cc1n2)C(CCC(=O)OCC)=C5C)c(C1CC1C(=O)OCC)c4C)c(C1CC1C(=O)OCC)c3C (configuration not stated)
inactive: [14] 102 % of control | [15] 100 % of control | [16] 101 % of control

C/C(N=NC(=S)N1CCC(C)CC1)=C1\C=CC=CN1O
inactive: [6] 103 % of control | [7] 103 % of control | [8] 108 % of control

O=c1[nH]c2n[nH]c(=S)n2c2c1CCCC2
inactive: [3] 99 % of control | [4] 97 % of control | [19] 99 % of control

NC1CCCCCC1
inactive: dose: 50.0 mg/kg/injection, schedule: Q01DX005 (ip), vehicle: saline 110 % of control | dose: 100.0 mg/kg/injection, schedule: Q01DX005 (ip), vehicle: saline 86 % of control

CCC(C)C(C)CNC12CN3CN(CN(C3)C1)C2 (configuration not stated)
inactive: dose: 50.0 mg/kg/injection, schedule: Q01DX001 (ip), vehicle: saline 103 % of control | dose: 100.0 mg/kg/injection, schedule: Q01DX001 (ip), vehicle: saline 104 % of control | dose: 200.0 mg/kg/injection, schedule: Q01DX001 (ip), vehicle: saline 108 % of control

Cn1c2ccc([N+](=O)[O-])cc2c(=O)c2c(O)cc3c(c21)C=CC(C)(C)O3
inactive: dose: 25.0 mg/kg/injection, schedule: Q01DX001 (ip), vehicle: saline with Tween-80 97 % of control | [20] 97 % of control | [17] 89 % of control and 95 % of control

CCCCCn1c(CN2CCCCC2)nc2c1-c1ccccc1C(=O)C2=O
inactive: [20] 100 % of control | [17] 100 % of control | [18] 100 % of control

CCCCN(CCCC)c1ccc(C(=N)c2ccc(N(C)C)cc2)cc1
inactive: dose: 6.25 mg/kg/injection, schedule: Q01DX005 (ip), vehicle: Klucel (hydroxypropylcellulose) (HPC) 106 % of control | dose: 12.5 mg/kg/injection, schedule: Q01DX005 (ip), vehicle: Klucel (hydroxypropylcellulose) (HPC) 106 % of control

Cc1ccccc1NP1(=O)OCCCN1Cc1ccccc1Cl (configuration not stated)
inactive: [6] 99 % of control | [7] 93 % of control | [8] 93 % of control

CC1=C(O[Si](C)(C)C)CCC1=O
inactive: [6] 113 % of control | [7] 105 % of control | [8] 106 % of control

Cc1cc(=O)oc2ccc(C(=O)/C=C/N(C)C)c(O)c12
inactive: [1] 96 % of control | [2] 92 % of control | [5] 89 % of control

CCOC(=O)c1cc(CC)sc1NC(=O)CC(C)=O
inactive: [1] 97 % of control | [2] 100 % of control | [5] 97 % of control

O=C1c2ccccc2C(=O)c2c1c(Cl)cc1c(=O)c3cc(Cl)cc(Cl)c3[nH]c21
inactive: [6] 99 % of control | [7] 95 % of control | [8] 92 % of control

Source: PubChem BioAssay AID330 (DTP/NCI, 2004)
